Laboratory results published in the NIST ThermoML archive (doi:10.1021/acs.jced.6b00951).
Numbers after ± are expanded uncertainties.

Settings: 100.3 kPa, Liquid; for viscosity: Capillary tube (Ostwald / Ubbelohde) method; for mass density: Vibrating tube method

O [water]
Settings | mass density [kg/m3] | viscosity [mPa·s]
288.15 K | – | 1.139 ± 0.016
293.15 K | – | 1.002 ± 0.015
298.15 K | – | 0.8897 ± 0.015
303.15 K | – | 0.7988 ± 0.015
308.15 K | – | 0.7184 ± 0.015
313.15 K | – | 0.6525 ± 0.015
318.15 K | – | 0.596 ± 0.015
323.15 K | 988.04 ± 2.1 | 0.547 ± 0.015
328.15 K | 985.69 ± 2.1 | 0.5043 ± 0.015
